The target in assay [1] is T1, Alpha-1A adrenergic receptor (Homo sapiens, UniProt P35348).
T1 sequence (P35348 whole entry): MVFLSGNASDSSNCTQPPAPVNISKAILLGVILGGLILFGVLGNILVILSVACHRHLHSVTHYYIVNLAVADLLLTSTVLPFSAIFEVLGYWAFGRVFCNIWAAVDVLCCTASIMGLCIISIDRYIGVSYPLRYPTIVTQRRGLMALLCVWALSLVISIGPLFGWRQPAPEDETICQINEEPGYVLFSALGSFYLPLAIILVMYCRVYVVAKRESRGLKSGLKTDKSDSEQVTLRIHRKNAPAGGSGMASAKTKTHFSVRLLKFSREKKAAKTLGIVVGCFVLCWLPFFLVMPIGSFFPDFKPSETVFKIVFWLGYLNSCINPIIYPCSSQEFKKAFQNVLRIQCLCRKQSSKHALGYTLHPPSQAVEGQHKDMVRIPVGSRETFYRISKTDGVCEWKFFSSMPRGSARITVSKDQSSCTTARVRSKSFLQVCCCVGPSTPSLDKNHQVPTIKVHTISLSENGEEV
It is filed as functional, cell-based.

Assay [2] concerns the target Beta-1 adrenergic receptor (Homo sapiens, UniProt P08588). It is filed as functional.
Assay [3] concerns the target Voltage-dependent L-type calcium channel subunit alpha-1C (Rattus norvegicus, UniProt P22002). It is filed as functional.
The target of assay [4] is T2, B2 bradykinin receptor (Homo sapiens, UniProt P30411).
T2 sequence (P30411 whole entry): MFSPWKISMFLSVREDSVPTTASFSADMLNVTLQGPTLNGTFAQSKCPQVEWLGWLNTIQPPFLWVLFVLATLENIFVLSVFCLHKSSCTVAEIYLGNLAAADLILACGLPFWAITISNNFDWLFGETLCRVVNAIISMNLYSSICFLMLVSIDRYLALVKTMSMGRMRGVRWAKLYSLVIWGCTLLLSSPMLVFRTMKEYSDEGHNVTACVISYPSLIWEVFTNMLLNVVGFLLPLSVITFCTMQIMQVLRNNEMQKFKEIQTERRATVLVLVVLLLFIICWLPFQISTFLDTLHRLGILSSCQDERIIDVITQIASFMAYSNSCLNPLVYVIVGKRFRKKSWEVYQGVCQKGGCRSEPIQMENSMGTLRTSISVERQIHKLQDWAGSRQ

Assay [5] deals with T1, Alpha-1A adrenergic receptor. It is filed as functional, cell-based. This is another data set of the same source.
Assay [6] has the same target. It is filed as functional, cell-based. This is another data set of the same source.
Assay [7] has as its target T3, Alpha-2C adrenergic receptor (Homo sapiens, UniProt P18825).
T3 sequence (P18825 whole entry): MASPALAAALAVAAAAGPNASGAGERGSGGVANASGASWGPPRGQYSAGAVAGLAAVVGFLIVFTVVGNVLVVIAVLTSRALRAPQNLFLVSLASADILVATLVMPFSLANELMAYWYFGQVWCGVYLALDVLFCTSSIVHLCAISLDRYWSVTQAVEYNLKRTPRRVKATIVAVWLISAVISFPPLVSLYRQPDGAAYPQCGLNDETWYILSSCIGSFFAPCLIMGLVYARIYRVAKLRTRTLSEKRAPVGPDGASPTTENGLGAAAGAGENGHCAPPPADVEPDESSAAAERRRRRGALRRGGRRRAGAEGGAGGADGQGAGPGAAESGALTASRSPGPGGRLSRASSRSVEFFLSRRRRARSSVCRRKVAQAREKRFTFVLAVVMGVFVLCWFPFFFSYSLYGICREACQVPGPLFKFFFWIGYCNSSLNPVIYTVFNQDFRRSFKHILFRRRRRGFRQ
It is filed as functional.

Assay [8] deals with Gamma-aminobutyric acid receptor subunit alpha-1 (Rattus norvegicus, UniProt P62813). It is filed as functional.
Assay [9] addresses T4, Endothelin-1 receptor (Homo sapiens, UniProt P25101).
T4 sequence (P25101 whole entry): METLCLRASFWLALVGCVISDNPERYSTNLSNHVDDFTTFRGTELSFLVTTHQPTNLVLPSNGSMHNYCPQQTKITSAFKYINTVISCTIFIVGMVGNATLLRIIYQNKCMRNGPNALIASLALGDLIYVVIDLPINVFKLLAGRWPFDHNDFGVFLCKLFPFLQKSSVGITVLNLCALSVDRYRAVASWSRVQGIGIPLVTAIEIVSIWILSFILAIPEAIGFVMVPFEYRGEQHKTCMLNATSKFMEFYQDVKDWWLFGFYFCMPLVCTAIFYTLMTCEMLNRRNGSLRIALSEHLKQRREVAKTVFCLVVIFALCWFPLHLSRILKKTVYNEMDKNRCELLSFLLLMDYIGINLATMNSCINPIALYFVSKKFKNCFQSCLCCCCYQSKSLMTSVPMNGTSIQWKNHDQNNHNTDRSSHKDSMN

For assay [10], the target named is Cannabinoid receptor 1 (Homo sapiens, UniProt P21554). It is filed as functional, cell-based.
Assay [11] has as its target T5, Adenosine receptor A3 (Homo sapiens, UniProt P0DMS8).
T5 sequence (P0DMS8 whole entry): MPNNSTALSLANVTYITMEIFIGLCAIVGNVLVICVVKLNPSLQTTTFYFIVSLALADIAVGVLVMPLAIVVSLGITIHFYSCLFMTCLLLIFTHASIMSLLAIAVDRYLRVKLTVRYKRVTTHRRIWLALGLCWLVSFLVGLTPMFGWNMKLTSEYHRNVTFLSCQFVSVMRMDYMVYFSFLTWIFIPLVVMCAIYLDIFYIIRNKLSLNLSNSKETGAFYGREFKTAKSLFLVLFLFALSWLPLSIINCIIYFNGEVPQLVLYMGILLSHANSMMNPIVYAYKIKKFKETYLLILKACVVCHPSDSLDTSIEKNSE

Assay [12] addresses T6, 5-hydroxytryptamine receptor 2C (Homo sapiens, UniProt P28335).
T6 sequence (P28335 whole entry): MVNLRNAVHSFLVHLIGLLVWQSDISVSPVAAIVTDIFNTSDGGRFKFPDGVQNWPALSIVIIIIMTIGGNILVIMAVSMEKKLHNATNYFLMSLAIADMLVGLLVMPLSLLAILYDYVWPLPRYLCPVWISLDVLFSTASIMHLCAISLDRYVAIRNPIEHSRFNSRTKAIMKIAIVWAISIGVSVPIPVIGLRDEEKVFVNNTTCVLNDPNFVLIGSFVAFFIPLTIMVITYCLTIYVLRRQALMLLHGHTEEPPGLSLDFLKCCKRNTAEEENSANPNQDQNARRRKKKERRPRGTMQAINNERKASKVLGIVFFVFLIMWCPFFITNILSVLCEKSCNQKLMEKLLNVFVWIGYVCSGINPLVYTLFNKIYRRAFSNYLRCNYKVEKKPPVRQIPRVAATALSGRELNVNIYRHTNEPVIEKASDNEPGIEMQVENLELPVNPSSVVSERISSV

SMILES strings stand for the structures. Where “and” joins values, the source holds several entries; their conditions need not be identical. Identical values can stand only once.

AC50 data for 19 molecules are collected here from ChEMBL document CHEMBL5291721, “A preclinical secondary pharmacology resource illuminates target-adverse drug reaction associations of marketed drugs” (Nat Commun, 2023).
Note: assay procedure not described here.

Gamma-aminobutyric acid receptor subunit alpha-1, sequence (P62813 whole entry): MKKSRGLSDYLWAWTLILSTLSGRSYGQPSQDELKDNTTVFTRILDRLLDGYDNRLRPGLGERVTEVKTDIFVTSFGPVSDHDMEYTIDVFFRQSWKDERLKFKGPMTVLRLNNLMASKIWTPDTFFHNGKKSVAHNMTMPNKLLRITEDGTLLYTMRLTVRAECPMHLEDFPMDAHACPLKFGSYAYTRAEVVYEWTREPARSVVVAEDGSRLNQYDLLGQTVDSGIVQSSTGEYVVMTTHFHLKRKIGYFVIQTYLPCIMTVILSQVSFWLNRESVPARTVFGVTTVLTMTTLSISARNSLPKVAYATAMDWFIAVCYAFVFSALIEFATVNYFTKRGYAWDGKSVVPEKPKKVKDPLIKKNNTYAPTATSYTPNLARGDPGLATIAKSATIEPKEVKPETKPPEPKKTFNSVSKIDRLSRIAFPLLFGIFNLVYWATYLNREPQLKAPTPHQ
Beta-1 adrenergic receptor, sequence (P08588 whole entry): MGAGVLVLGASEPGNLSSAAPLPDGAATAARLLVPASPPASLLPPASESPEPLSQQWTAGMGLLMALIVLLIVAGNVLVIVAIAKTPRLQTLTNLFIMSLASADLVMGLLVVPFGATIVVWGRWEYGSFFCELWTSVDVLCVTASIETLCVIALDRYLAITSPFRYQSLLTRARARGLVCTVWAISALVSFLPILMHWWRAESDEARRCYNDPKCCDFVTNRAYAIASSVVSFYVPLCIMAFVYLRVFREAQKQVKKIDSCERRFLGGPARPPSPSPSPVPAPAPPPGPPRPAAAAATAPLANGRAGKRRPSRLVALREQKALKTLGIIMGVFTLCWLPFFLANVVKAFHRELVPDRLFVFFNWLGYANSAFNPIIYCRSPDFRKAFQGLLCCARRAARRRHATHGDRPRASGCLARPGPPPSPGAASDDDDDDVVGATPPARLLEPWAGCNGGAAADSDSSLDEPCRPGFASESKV
Voltage-dependent L-type calcium channel subunit alpha-1C, sequence (P22002 whole entry): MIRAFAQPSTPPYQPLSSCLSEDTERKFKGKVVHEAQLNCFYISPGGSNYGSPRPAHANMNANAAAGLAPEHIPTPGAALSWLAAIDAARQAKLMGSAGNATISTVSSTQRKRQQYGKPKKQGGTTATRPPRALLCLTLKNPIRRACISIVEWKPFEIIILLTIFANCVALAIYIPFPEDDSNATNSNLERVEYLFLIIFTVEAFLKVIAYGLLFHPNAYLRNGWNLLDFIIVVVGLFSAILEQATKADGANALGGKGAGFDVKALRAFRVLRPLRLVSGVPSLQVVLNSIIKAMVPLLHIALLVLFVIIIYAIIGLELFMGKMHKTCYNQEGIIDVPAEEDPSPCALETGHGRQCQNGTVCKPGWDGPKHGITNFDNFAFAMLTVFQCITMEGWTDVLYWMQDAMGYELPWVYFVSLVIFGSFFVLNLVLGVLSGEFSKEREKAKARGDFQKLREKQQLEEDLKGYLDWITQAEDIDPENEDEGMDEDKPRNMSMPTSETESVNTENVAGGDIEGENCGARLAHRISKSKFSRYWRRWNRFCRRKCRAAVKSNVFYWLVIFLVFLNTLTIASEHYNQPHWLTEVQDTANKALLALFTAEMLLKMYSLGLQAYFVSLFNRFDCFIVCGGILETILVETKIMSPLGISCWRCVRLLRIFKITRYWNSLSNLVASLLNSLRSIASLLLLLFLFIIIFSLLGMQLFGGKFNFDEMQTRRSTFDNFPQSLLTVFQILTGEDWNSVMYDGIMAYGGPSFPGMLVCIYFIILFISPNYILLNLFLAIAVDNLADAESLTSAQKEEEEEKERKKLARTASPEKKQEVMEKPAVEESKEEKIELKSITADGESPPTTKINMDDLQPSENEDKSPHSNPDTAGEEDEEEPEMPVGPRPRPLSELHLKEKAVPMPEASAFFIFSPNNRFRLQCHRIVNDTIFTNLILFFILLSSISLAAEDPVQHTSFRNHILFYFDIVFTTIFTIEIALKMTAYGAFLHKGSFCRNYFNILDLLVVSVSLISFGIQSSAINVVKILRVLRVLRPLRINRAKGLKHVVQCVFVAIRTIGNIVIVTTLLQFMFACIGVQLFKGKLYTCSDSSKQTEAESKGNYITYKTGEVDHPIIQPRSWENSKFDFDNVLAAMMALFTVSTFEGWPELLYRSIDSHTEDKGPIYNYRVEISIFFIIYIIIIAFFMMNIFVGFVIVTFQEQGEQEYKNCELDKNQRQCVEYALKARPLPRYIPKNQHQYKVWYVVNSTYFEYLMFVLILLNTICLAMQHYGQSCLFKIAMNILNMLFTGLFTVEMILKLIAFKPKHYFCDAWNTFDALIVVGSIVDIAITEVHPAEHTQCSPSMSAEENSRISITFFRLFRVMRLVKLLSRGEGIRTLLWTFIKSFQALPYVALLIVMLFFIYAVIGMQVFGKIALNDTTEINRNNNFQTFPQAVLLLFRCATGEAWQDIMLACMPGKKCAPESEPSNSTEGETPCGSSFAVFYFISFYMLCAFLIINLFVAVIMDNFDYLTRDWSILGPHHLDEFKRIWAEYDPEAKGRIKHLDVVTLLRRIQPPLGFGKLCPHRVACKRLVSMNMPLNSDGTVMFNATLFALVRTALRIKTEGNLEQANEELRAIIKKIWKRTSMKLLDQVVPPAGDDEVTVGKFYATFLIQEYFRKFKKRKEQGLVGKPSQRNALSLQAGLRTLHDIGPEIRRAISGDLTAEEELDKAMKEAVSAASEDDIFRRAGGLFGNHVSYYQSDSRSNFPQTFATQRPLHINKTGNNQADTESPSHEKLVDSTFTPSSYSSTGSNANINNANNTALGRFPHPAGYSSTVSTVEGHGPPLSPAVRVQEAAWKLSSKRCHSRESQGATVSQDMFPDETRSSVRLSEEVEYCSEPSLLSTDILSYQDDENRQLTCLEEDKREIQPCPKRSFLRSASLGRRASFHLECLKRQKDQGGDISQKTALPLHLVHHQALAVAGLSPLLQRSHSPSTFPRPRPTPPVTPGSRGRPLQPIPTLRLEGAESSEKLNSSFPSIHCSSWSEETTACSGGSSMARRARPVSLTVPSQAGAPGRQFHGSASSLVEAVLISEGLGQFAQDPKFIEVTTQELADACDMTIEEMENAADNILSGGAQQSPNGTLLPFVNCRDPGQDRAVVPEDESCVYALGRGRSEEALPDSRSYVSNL
Cannabinoid receptor 1, sequence (P21554 whole entry): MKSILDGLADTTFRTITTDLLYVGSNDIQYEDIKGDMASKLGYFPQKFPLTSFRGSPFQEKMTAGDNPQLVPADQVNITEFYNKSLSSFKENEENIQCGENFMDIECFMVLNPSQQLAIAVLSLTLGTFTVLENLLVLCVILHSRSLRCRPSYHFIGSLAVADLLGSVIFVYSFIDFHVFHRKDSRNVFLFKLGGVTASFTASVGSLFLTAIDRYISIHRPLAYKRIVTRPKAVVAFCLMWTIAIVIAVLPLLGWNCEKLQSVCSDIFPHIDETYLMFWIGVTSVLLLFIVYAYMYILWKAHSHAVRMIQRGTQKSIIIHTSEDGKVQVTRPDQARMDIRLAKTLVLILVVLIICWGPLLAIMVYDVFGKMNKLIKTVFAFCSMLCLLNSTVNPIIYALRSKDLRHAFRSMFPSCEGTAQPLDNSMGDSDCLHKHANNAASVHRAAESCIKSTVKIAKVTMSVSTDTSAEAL

The molecule `O=C(O)COc1ccc(C(=O)c2cccs2)c(Cl)c1Cl` gave an AC50 in [1] of more than 30 µM.

For the molecule `COc1c2ccoc2cc2oc(=O)ccc12` [BERGAPTEN], the AC50 in [1] was more than 30 µM.

In [1], `CNC(=O)Oc1cccc2ccccc12` [CARBARIL] showed a concentration at half-maximal activity (AC50) of more than 30 µM.

Regarding `CC[C@H](C)C[C@H](C)CCCCCCCCC(=O)N[C@H]1C[C@@H](O)[C@@H](NCCN)NC(=O)[C@@H]2[C@@H](O)CCN2C(=O)[C@H]([C@H](O)CCN)NC(=O)[C@H]([C@H](O)[C@@H](O)c2ccc(O)cc2)NC(=O)[C@@H]2C[C@@H](O)CN2C(=O)[C@H]([C@@H](C)O)NC1=O` [CASPOFUNGIN], the AC50 in [1] was more than 30 µM.

For the molecule `C/C=C/C/C=C/CCC(=O)[C@H]1O[C@H]1C(N)=O` [CERULENIN], in assay [1], the AC50 is more than 30 µM.

`CN(C)[C@@H]1C(O)=C(C(N)=O)C(=O)[C@@]2(O)C(O)=C3C(=O)c4c(O)ccc(Cl)c4[C@@](C)(O)[C@H]3C[C@@H]12` [CHLORTETRACYCLINE]: in assay [1], the concentration at half-maximal activity (AC50) is more than 30 µM.

On to `O=C1CCc2cc(OCCCCc3nnnn3C3CCCCC3)ccc2N1` [CILOSTAZOL], for which the AC50 in assay [2], in [3], in assay [4], in assay [5], in assay [6] and in [7] was more than 30 µM in each case. Moreover, the AC50 in assay [8] was more than 30 µM; in [9] it was more than 30 µM; in assay [10], more than 30 µM; in assay [11], 18.2 µM; in assay [12] it was more than 30 µM.

As for `N[C@@H](CS)C(=O)O` [CYSTEINE], the AC50 in assay [1] was more than 30 µM.

As to `CN(C)CC[C@@H](c1ccc(Cl)cc1)c1ccccn1` [DEXCHLORPHENIRAMINE], the AC50 in assay [2], in assay [3], in assay [4], in [5], in assay [6] and in assay [7] was more than 30 µM in each case. Besides, the concentration at half-maximal activity (AC50) is more than 30 µM in [8]; more than 30 µM in assay [9]; more than 30 µM in assay [10]; more than 30 µM in assay [11]; 28 µM in [12].

As for `CC(C)N(CCC(C(N)=O)(c1ccccc1)c1ccccn1)C(C)C` (centres undefined) [DISOPYRAMIDE], the AC50 in assay [2] is more than 30 µM; in assay [3] it was more than 10 µM; in assay [4], more than 30 µM; in [5], more than 30 µM; in assay [6] it was more than 30 µM; in assay [7], more than 10 µM. The AC50 is more than 10 µM in [8]; more than 30 µM in assay [9]; more than 30 µM in [10]; more than 30 µM in assay [11]; more than 30 µM in assay [12].

As to `C[C@H]1O[C@@H](n2cc(F)c(=O)[nH]c2=O)[C@H](O)[C@@H]1O` [DOXIFLURIDINE], the concentration at half-maximal activity (AC50) in assay [1] was more than 30 µM.

`C[C@H]1c2cccc(O)c2C(=O)C2=C(O)[C@]3(O)C(=O)C(C(N)=O)=C(O)[C@@H](N(C)C)[C@@H]3[C@@H](O)[C@@H]21` [DOXYCYCLINE]: the AC50 was more than 10 µM in [2]; more than 10 µM in assay [3]; more than 30 µM in assay [4]; more than 30 µM in assay [5]; more than 30 µM in assay [6]; more than 10 µM in assay [7]. The AC50 was more than 10 µM in assay [8]; more than 30 µM in [9]; more than 30 µM in assay [10]; more than 30 µM in assay [11]; more than 30 µM in [12].

As for `OC[C@H]1O[C@@H](c2ccc(Cl)c(Cc3ccc(O[C@H]4CCOC4)cc3)c2)[C@H](O)[C@@H](O)[C@@H]1O` [EMPAGLIFLOZIN], in assay [1], the AC50 is more than 30 µM.

Regarding `CC(C)(O)CNc1nc(Nc2ccnc(C(F)(F)F)c2)nc(-c2cccc(C(F)(F)F)n2)n1` [ENASIDENIB], the AC50 in assay [1] was more than 30 µM.

On to `CCc1nc(C(N)=O)c(Nc2ccc(N3CCC(N4CCN(C)CC4)CC3)c(OC)c2)nc1NC1CCOCC1` [GILTERITINIB], for which, in assay [1], the half-maximal activity concentration (AC50) was more than 30 µM.

`CC[C@H](c1ccc(O)cc1)[C@@H](CC)c1ccc(O)cc1` [HEXESTROL]: the AC50 in assay [1] was 25.9 µM.

Turning to `N[C@@H](CC(=O)N1CCn2c(nnc2C(F)(F)F)C1)Cc1cc(F)c(F)cc1F` [SITAGLIPTIN], the AC50 in [2] is more than 30 µM; in assay [3], more than 10 µM; in [4], more than 10 µM; in assay [5], more than 30 µM; in assay [6], more than 30 µM; in assay [7], more than 30 µM. Further, the half-maximal activity concentration (AC50) in [8], in [9], in [10], in assay [11] and in assay [12] was more than 30 µM in each case.

For `Nc1ccc(S(=O)(=O)Nc2nccs2)cc1` [SULFATHIAZOLE], the concentration at half-maximal activity (AC50) in [2] is more than 10 µM; in assay [3] it was more than 10 µM; in [4], more than 30 µM; in assay [5], more than 30 µM; in assay [6], more than 30 µM; in assay [7] it was more than 10 µM. Also, the AC50 in [8] was more than 10 µM; in assay [9] it was more than 30 µM; in [10], more than 30 µM; in assay [11], more than 30 µM; in [12], more than 30 µM.

Turning to `C=CC[C@@H]1/C=C(\C)C[C@H](C)C[C@H](OC)[C@H]2O[C@@](O)(C(=O)C(=O)N3CCCC[C@H]3C(=O)O[C@H](/C(C)=C/[C@@H]3CC[C@@H](O)[C@H](OC)C3)[C@H](C)[C@@H](O)CC1=O)[C@H](C)C[C@@H]2OC` [TACROLIMUS ANHYDROUS], the AC50 in assay [2] was more than 30 µM; in assay [3] it was more than 10 µM; in assay [4], more than 30 µM; in assay [5], more than 30 µM; in assay [6], more than 30 µM; in assay [7], more than 30 µM. Moreover, the concentration at half-maximal activity (AC50) in assay [8] is more than 30 µM; in [9], more than 30 µM; in [10], more than 30 µM; in [11], 11 µM and 27.2 µM; in assay [12], more than 30 µM.
